According to patent US20260234147A1 (priority 2023, published 2026):
Like-named read-outs stand apart in the source and are kept apart here.

Key:
α2C adrenergic receptor = target: T1, α2C adrenergic receptor (Homo sapiens, UniProt P18825); test: Radioligand binding assay (Eurofins Cerep), [3H]RX 821002 displacement; conditions: Ki (nM ± SEM) a2C-AR, 3 independent experiments
T1 construct: Eurofins Cerep (contract screening)
T1 sequence (P18825 1-462): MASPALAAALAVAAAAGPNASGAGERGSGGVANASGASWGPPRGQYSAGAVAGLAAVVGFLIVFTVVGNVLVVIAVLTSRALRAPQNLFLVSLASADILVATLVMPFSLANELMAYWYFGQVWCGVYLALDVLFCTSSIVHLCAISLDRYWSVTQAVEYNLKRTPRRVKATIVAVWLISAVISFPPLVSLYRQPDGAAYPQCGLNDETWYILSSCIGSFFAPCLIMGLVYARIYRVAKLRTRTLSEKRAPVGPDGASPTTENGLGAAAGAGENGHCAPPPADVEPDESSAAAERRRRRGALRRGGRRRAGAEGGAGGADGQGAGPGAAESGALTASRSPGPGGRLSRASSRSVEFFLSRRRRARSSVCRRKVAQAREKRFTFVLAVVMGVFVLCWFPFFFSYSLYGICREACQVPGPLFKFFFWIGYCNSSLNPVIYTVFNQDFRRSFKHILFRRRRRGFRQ

hKOR = hKOR (Homo sapiens, UniProt P41145); test: Radioligand binding assay (Eurofins Cerep), [3H]U69,593 displacement; conditions: 3 independent experiments, read-out: Ki (nM ± SEM) KOR
hDOR = hDOR (Homo sapiens, UniProt P41143); test: Radioligand binding assay (Eurofins Cerep), [3H]DADLE displacement; conditions: 3 independent experiments, read-out: Ki (nM ± SEM) DOR
α2A adrenergic receptor = target: T2, α2A adrenergic receptor (Homo sapiens, UniProt P08913); test: Radioligand binding assay (Eurofins Cerep), [3H]RX 821002 displacement; conditions: 3 independent experiments
T2 construct: Eurofins Cerep (contract screening)
T2 sequence (P08913 1-465): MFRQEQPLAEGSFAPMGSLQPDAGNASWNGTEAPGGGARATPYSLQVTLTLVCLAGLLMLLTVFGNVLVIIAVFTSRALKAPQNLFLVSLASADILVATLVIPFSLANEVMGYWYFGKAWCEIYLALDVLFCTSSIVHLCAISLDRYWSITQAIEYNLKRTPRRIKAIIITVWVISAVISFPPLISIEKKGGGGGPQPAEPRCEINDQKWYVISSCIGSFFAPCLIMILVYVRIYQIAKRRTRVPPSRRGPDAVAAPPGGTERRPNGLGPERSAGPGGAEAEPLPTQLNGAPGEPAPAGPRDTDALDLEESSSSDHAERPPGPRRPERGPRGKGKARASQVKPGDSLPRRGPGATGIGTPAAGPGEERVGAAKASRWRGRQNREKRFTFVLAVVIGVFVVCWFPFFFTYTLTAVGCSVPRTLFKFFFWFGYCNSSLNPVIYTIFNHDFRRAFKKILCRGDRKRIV

hMOR = hMOR (Homo sapiens, UniProt P35372); test: Radioligand binding assay (Eurofins Cerep), [3H]DAMGO displacement; conditions: for Ki: 3 independent experiments, read-out: Ki (nM ± SEM) MOR
[1] = Ki (nM ± SEM) a2A-AR, Table 3-1
[2] = Ki (nM ± SEM) a2A-AR, Table 3-2
[3] = Ki (nM ± SEM) a2A-AR, Table 3-3
[4] = Ki (nM ± SEM) a2A-AR, Table 3-6
[5] = Ki (nM ± SEM) a2A-ar, Table 3-5

Chain of hMOR (P35372 whole entry): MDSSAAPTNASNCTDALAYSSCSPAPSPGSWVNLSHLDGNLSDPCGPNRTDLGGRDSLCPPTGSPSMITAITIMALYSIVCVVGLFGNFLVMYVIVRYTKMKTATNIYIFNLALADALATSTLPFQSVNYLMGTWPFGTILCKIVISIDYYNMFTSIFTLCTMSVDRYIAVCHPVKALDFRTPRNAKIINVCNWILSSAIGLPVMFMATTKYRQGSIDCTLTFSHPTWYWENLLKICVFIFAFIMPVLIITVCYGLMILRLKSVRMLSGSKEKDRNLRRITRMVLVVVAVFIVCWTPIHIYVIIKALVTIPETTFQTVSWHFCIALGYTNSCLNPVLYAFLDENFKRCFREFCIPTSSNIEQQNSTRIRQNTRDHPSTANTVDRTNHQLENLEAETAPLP
Chain of hKOR (P41145 whole entry): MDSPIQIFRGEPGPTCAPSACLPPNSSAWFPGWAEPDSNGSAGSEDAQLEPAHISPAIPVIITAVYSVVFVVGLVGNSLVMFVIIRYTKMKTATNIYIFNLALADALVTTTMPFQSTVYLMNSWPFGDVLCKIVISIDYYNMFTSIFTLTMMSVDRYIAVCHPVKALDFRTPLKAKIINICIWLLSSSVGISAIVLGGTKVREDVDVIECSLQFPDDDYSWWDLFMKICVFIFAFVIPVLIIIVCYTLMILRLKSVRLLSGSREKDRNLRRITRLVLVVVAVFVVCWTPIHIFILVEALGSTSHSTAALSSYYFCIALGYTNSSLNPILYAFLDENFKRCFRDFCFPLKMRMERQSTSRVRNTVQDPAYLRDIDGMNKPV
Chain of hDOR (P41143 whole entry): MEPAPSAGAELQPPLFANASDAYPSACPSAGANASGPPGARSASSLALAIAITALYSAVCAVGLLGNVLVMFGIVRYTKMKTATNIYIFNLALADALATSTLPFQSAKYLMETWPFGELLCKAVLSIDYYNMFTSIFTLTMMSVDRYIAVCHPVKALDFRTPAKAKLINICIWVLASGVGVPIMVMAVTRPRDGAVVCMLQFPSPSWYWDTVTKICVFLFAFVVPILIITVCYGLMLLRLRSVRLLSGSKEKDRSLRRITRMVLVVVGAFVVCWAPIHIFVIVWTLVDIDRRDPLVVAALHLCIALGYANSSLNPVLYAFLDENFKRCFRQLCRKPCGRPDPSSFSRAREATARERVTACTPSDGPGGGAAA

Structure (SMILES) | Ki (α2C adrenergic receptor; Table 3-1) [nM] | Ki (α2C adrenergic receptor; Table 3-2) [nM] | Ki (α2C adrenergic receptor; Table 3-5) [nM] | Ki (α2C adrenergic receptor; Table 3-6) [nM] | Ki (hKOR; Table 3-1) [nM] | Ki (hKOR; Table 3-2) [nM] | Ki (hKOR; Table 3-3) [nM] | Ki (hKOR; Table 3-5) [nM] | Ki (hKOR; Table 3-6) [nM] | Ki (hDOR; Table 3-1) [nM] | Ki (hDOR; Table 3-2) [nM] | Ki (hDOR; Table 3-3) [nM] | Ki (hDOR; Table 3-5) [nM] | Ki (hDOR; Table 3-6) [nM] | Ki (α2A adrenergic receptor; [1]) [nM] | Ki (α2A adrenergic receptor; [2]) [nM] | Ki (α2A adrenergic receptor; [3]) [nM] | Ki (α2A adrenergic receptor; [4]) [nM] | Ki (α2A adrenergic receptor; [5]) [nM] | Ki (hMOR; Table 3-2) [nM] | also measured
COC(=O)CC1CCN(CCc2c[nH]c3cccc(OC)c23)CC1 [Compound 3-22] | 69.3 ± 4.2 | 69.3 ± 4.16 | 69.3 ± 4.16 | 69.3 ± 4.16 | > 10000 | > 10000 | > 10000 | > 10000 | > 10000 | > 10000 | > 10000 | > 10000 | > 10000 | > 10000 | 229 ± 24.9 | 229 ± 24.9 | 229 ± 24.9 | 229 ± 24.9 | 229 ± 24.9 | > 10000 | Ki (α2C adrenergic receptor; Table 3-3): 69.3 ± 4.16 nM; Ki (hMOR; Table 3-1): > 10000 nM; Ki (hMOR; Table 3-3): > 10000 nM; Ki (hMOR; Table 3-5): > 10000 nM; Ki (hMOR; Table 3-6): > 10000 nM
CO/C=C(/C(=O)OC)C1CCN(CCc2c[nH]c3ccccc23)CC1 [Compound 3-23] | 830 ± 268 | 830 ± 268 | 830 ± 268 | 135 ± 12.5 | 3670 ± 1260 | 3670 ± 1260 |  | 3670 ± 1260 | 3670 ± 1260 | > 10000 | > 10000 |  | > 10000 | > 10000 | 741 ± 19.3 | 741 ± 19.3 |  | 741 ± 19.3 | 741 ± 19.3 | 451 ± 108 | Ki (α2C adrenergic receptor; Table 3-4): 830 ± 268 nM; Ki (hKOR; Table 3-4): 3670 ± 1260 nM; Ki (hDOR; Table 3-4): > 10000 nM; Ki (α2A adrenergic receptor; Ki (nM ± SEM) a2A-AR, Table 3-4): 741 ± 19.3 nM; SR: Selectivity Ratio (KiMOR/Kiα2A) (hMOR; Table 3-1): 0.61; Ki (hMOR; Table 3-1): 451 ± 108 nM; SR: Selectivity Ratio (KiMOR/Kiα2A) (hMOR; Table 3-2): 0.61; SR: Selectivity Ratio (KiMOR/Kiα2A) (hMOR; Table 3-4): 0.61; Ki (hMOR; Table 3-4): 451 ± 108 nM; SR: Selectivity Ratio (KiMOR/Kiα2A) (hMOR; Table 3-5): 0.61; Ki (hMOR; Table 3-5): 451 ± 108 nM; SR: Selectivity Ratio (KiMOR/Kiα2A) (hMOR; Table 3-6): 0.61; Ki (hMOR; Table 3-6): 451 ± 108 nM
COC(=O)CC1CCN(CCc2c[nH]c3c(OC)cccc23)CC1 [Compound 3-42] |  | 830 ± 268 |  |  |  | > 10000 | > 10000 |  |  |  | > 10000 | > 10000 |  |  |  | 1300 ± 129 | 1300 ± 129 |  |  | > 10000 | Ki (hMOR; Table 3-3): > 10000 nM
